In article PMC10204553, “Identification of the Binding Epitope of an Anti-Mouse CCR6 Monoclonal Antibody (C6Mab-13) Using 1× Alanine Scanning” (Antibodies, 2023):

What was measured:
[1] = system: C6Mab-13; test: Surface plasmon resonance (Biacore X100), C6Mab-13 immobilized on CM5 chip; type: binding, rat; conditions: KD could not be calculated
Procedure: The dissociation constants (KD) between C6Mab-13 and the epitope region peptides were measured using SPR. C6Mab-13 was immobilized on the CM5 sensor chip according to the manufacturer’s protocol (Cytiva, Marlborough, MA, USA). In summary, C6Mab-13 was diluted to 10 μg/mL by an acetate buffer (pH 4.0; Cytiva) and immobilized using an amine-coupling reaction. The surface of flow cell 2 of the CM5 sensor chip was treated with 1-ethyl-3-(3-dimethylaminopropyl)-carbodiimide and N-hydroxysuccinimide (NHS), followed by an injection of C6Mab-13. The unreacted NHS-ester was blocked with ethanolamine after C6Mab-13 immobilization. The KD between C6Mab-13 and mCCR6 peptides (50, 25, 12.5, 6.25, and 3.13 µM) were measured using Biacore X100 (Cytiva) at 25 °C. The buffer was filtrated with PBS containing 0.05% (v/v) Tween 20 and 0.24% (v/v) dimethyl sulfoxide (FUJIFILM Wako Pure Chemical Corporation, Osaka, Japan). The single-cycle kinetics method was used to measure the binding signals. The data were analyzed using 1:1 binding kinetics to determine the association rate constant (ka), dissociation rate constant (kd), and KD using BIAevaluation software (Cytiva).

[2] = system: C6Mab-13; test: ELISA of C6Mab-13 with immobilized alanine-substituted mCCR6 peptides; type: binding, rat; conditions: for binding of C6Mab-13 in ELISA (in words): ELISA with alanine-substituted peptides, Figure 1A; for C6Mab-13 Reactivity: ELISA, peptide immobilized at 10 µg/mL, 30 min 37 °C, C6Mab-13 10 µg/mL, OD at 655 nm
Procedure: Synthesized mCCR6 peptides were immobilized on Nunc Maxisorp 96-well immunoplates (Thermo Fisher Scientific Inc., Waltham, MA, USA) at 10 µg/mL for 30 min at 37 °C. After being washed with phosphate-buffered saline (PBS) containing 0.05% Tween20 (PBST; Nacalai Tesque, Inc., Kyoto, Japan), the wells were blocked with 1% bovine serum albumin (BSA)-containing PBST for 30 min at 37 °C. The plates were incubated with 10 µg/mL of C6Mab-13 for 30 min at 37 °C followed by peroxidase-conjugated anti-rat immunoglobulins (1:20,000 diluted; Sigma-Aldrich Corp.) for 30 min at 37 °C. Enzymatic reactions were conducted at room temperature using the ELISA POD Substrate TMB Kit (Nacalai Tesque, Inc.). Optical density was measured at 655 nm using an iMark microplate reader (Bio-Rad Laboratories, Inc., Berkeley, CA, USA).
Figure 1 Determination of the C6Mab-13 epitope by ELISA using alanine-substituted peptides of mCCR6. (A) Synthesized peptides of mCCR6 (10 µg/mL) were immobilized on immunoplates for 30 min at 37 °C. The plates were incubated with 10 µg/mL of C6Mab-13, followed by treatment with peroxidase-conjugated anti-rat immunoglobulins. Optical density was measured at 655 nm (OD655) using a microplate reader. (B) The schematic illustration of mCCR6 and the C6Mab-13 epitope. The C6Mab-13 epitope of mCCR6 comprises Asp11 from ELISA experiments.

| binding to C6Mab-13 in SPR analysis (in words) [1] | binding of C6Mab-13 in ELISA (in words) [2] | Sequence | C6Mab-13 Reactivity [2] |
| --- | --- | --- | --- |
| lack of binding | bound | MNSTESYFATDDYDNTEYYS [G9A, 1× alanine-substituted mCCR6 1–20 peptide] | +++ (OD655 ≧ 0.3) |
| lack of binding | did not react | MNSTESYFGTADYDNTEYYS [D11A, 1× alanine-substituted mCCR6 1–20 peptide] | - (OD655 < 0.1) |
